{"source": "patent US6004999A", "about": "“Triptolide derivatives useful in the treatment of autoimmune diseases” (priority 1998, dated 1999)", "key": {"[1]": {"system": "rat model of adjuvant-induced arthritis", "assay": "Anti-inflammatory activity in the rat model of adjuvant-induced arthritis", "assay_type": "in vivo, rat (male Wistar-Lewis)", "conditions": "12 consecutive days", "experimental": "(§1) Following generally the procedure of Pearson and Wood, Arth. Rheum., 2, 44 (1959), the anti-inflammatory activity of the following compounds was determined in a rat model of adjuvant-induced arthritis. Male Wistar-Lewisrats (Mollegaard, Breeding Centre Ltd, BIBY, DK 4623 LI, SKENSVED, P.P. Box 28, DK) with a body weight between 160 g and 200 g are used. Freund's adjuvant (0.1 mL, 6 mg Mycobacterium smegmatis suspension per mL in heavy white paraffin oil, Merck/Darmstadt) was injected into the base of the tail. Between day 10 and day 14 of the test, immunopathological processes let to chronic inflammation, especially in the form of arthritic and periarthritic symptoms in all parts of the body. The animals received standardized food Altromin-R (Altrogge, Lage) and had free access to water. The compounds were administered i.p. (a suspension in carboxymethyl cellulose solution in an injection volume of 0.5 mL/100 g body weight) on 12 consecutive days, starting with the day of the adjuvant injection. On day 1 and day 18 of the study, the volume of both hind paws and the body weight were recorded, and in addition on day 18 the arthritis index. Cyclosporin A and Prednisolone were used as standard compounds. In addition, table IV presents the percent change in body weight (weight gain) between day 1 and day 21 of the above test."}, "[2]": {"assay": "Percent change in body weight in the adjuvant-induced arthritis rat test", "assay_type": "in vivo, rat (male Wistar-Lewis)", "conditions": "between day 1 and day 21, arthritic CMC control 17.9, normal non-arthritic animals 32.0", "experimental": "as §1"}, "IL-2 production": {"system": "IL-2 production", "assay": "Interleukin-2 assay: IL-2 production by PHA/TPA-stimulated cells (ELISA)", "assay_type": "cell-based, human", "conditions": "PHA 10 μg/mL and 10^-8 M TPA stimulation; 16-24 hours", "experimental": "(§2) Jurkat E6-1 cell line (ATCC), a human leukemic T cell line or lymphocytes prepared from fresh human blood, are grown in complete culture medium consisting of RPMI-1640 (Mediatech) supplemented with 10% v/v fetal bovine serum (HyClone, Logen, Vermont), penicillin (100 units/mL), streptomycin ([…]), and 2mM L-glutamine (GIBCO, Grand Island, N.Y.). The cells are grown to a concentration of between 1.2 to 1.8×10^6 cells/mL before use. The cells are then centrifuged at low speed and resuspended to a concentration of 1.25×10^6 cells/mL in fresh medium.\n(§3) The compounds to be tested are dissolved in DMSO, and water is added to make a 50% DMSO/water solution. The compounds are then diluted in sterile water such that the DMSO concentrations are less then 0.05%. The cells at a concentration of 1.25×10^6 cells/mL are stimulated with phytohemagglutinin 10 μg/mL (PHA) and 10^-8 M phorbol ester (12-O-tetradecanoylphorbol 13-acetate: TPA), (Sigma, St. Louis, Mo.). The compounds are then added and the cells are plated in flat-bottom tissue culture plates (Falcon, Lincoln Park, N.J.), with 250,000 cells/well. Plates are then incubated at 37° C. in a 5% CO2 atmosphere.\nAfter incubation (16-24 hours), the cells are assayed for IL-2 production and cell viability (MTT). IL-2 production is assayed utilizing a solid phase ELISA immunoassay, sold in kit form by R&D Systems, Inc., Minneapolis, Minn."}, "[3]": {"system": "Jurkat E6-1 cell line or lymphocytes prepared from fresh human blood", "assay": "Cell viability (MTT mitochondrial enzyme assay)", "assay_type": "cell-based", "conditions": "cell viability after 16-24 hours incubation; MTT 4 hours", "experimental": "as §2, §3\nCell viability is measured by the use of a mitochondrial enzyme assay. After removal of the supernatant for the IL-2 assay, Cell Titer 96 (a commercial solution of MTT obtained from Promega, Madison, Wis.), is added to the plates and incubated for 4 hours at 37° C. A solubilization solution is then added and incubated overnight. The plates are then read on an ELISA plate reader at a wavelength of 570 nm. Table II presents the results for the lnterleukin-2 assay, the cell viability assay and the ratio of cell viability/IL-2 inhibition."}, "[4]": {"system": "immunosuppressive activity", "conditions": "in conjunction with another immunosuppressive agent (cyclosporin A, FK506, etc.); WO 94/26265; cited from earlier work"}, "lymphocyte proliferation": {"system": "lymphocyte proliferation", "conditions": "Yang et al. 1992, 1994; cited from earlier work"}}, "data": [{"compound": "CC(C)C12OC1C1OC13C1(C)CCC4=C(COC4=O)C1CCC3(O)C2O", "note": "(stereo not drawn) [Example 1, [5aR-(5aα,6α,6aα,7aα,7bβ,8aS*,8bα)]-3,3b,4,5,5a,6,6a,7a,7b,8b,9,10-dodecahydro-5a,6-dihydroxy-8b-methyl-6a-(1-methylethyl)-1H-bisoxireno[4b,5:6,7]phenanthro[1,2-c]furan-1-one]", "values": [{"measurement": "% Inhibition", "setting": "[1]; 10 mg/kg/day i.p.", "result": 90, "unit": "%"}, {"measurement": "% Change in Body Weight (weight gain)", "setting": "[2]; 10 mg/kg/day i.p.", "result": 29.9, "unit": "%"}, {"measurement": "IC50 /IL-2", "setting": "IL-2 production", "result": 0.036, "unit": "µg/mL"}]}, {"compound": "[1S (1α, 2β,3α, 3aβ,4aR*,4bα, 11aα)1-3-chloro-1, 2,3,3a,4b,5,6,9,9b, 10,11,11a-dodecahydro-1,2,11a-trihydroxy-4b-methyl-2-(1 -methylethyl)-7H-oxireno[4b,5]phenanthro [1,2-c]furan-7-one [Example 2]", "values": [{"measurement": "IC50 /MTT", "setting": "[3]", "result": 550, "unit": "ng/mL"}, {"measurement": "IC50 /IL-2", "setting": "IL-2 production", "result": 0.06, "unit": "µg/mL"}]}, {"compound": "C[C@@H](CO)[C@]12O[C@H]1[C@@H]1O[C@]13[C@]1(O[C@H]1C[C@H]1C4=C(CC[C@@]13C)C(=O)OC4)[C@@H]2O", "note": "[16-hydroxytriptolide]", "values": [{"measurement": "immunosuppressive activity", "setting": "[4]", "result": "increase in immunosuppressive activity relative to the sum of the effects"}]}, {"compound": "CC(C)[C@]12O[C@H]1[C@@H]1O[C@]13[C@]1(O[C@H]1C[C@H]1C4=C(CC[C@@]13C)C(=O)OC4)[C@@H]2O", "note": "[Triptolide]", "values": [{"measurement": "% Inhibition", "setting": "[1]; 0.2 mg/kg/day i.p.", "result": 70, "unit": "%"}, {"measurement": "% Inhibition", "setting": "[1]; 0.4 mg/kg/day i.p.", "result": 85, "unit": "%"}, {"measurement": "% Inhibition", "setting": "[1]; 0.8 mg/kg/day i.p.", "result": 76, "unit": "%"}, {"measurement": "% Change in Body Weight (weight gain)", "setting": "[2]; 0.2 mg/kg/day i.p.", "result": 17.2, "unit": "%"}, {"measurement": "% Change in Body Weight (weight gain)", "setting": "[2]; 0.4 mg/kg/day i.p.", "result": 22.0, "unit": "%"}, {"measurement": "% Change in Body Weight (weight gain)", "setting": "[2]; 0.8 mg/kg/day i.p.", "result": 18.0, "unit": "%"}, {"measurement": "IC50 /MTT", "setting": "[3]", "result": 5, "unit": "ng/mL"}, {"measurement": "suppress lymphocyte proliferation", "setting": "lymphocyte proliferation", "result": "suppress lymphocyte proliferation"}]}, {"compound": "C[C@]12C=CC(=O)C=C1CC[C@@H]1[C@@H]2[C@@H](O)C[C@@]2(C)[C@H]1CC[C@]2(O)C(=O)CO", "note": "[Prednisolone]", "values": [{"measurement": "% Inhibition", "setting": "[1]; 15 mg/kg/day i.p.", "result": 100, "unit": "%"}, {"measurement": "% Change in Body Weight (weight gain)", "setting": "[2]; 15 mg/kg/day i.p.", "result": 14.2, "unit": "%"}]}, {"compound": "Cyclosporin A", "values": [{"measurement": "% Inhibition", "setting": "[1]; 10 mg/kg/day i.p.", "result": 100, "unit": "%"}, {"measurement": "% Change in Body Weight (weight gain)", "setting": "[2]; 10 mg/kg/day i.p.", "result": 27.2, "unit": "%"}]}, {"compound": "[1S-(1α, 2β, 3α, 3aβ,4aR, 4bα, 11β, 11aα)-3-chloro-1, 2,3,3a,4b,5,6,9,9b, 10,11,11a-dodecahydro-1,11a-dihydroxy-4b-methyl-2-(1-methylethyl)-2,11 -epoxy-7oxireno[4b,5]phenanthro[1,2-c]furan-7-one [Example 3]", "values": [{"measurement": "IC50 /MTT", "setting": "[3]", "result": "> 1,000 ng/mL"}, {"measurement": "IC50 /IL-2", "setting": "IL-2 production", "result": 0.14, "unit": "µg/mL"}]}]}
